Laboratory results taken from US20160158200A1, “Combinations of Hepatitis C Virus Inhibitors” (priority 2013, published 2016).

What was measured:
Format in all cases: cell-based
[1] = test system: HCV genotype 1a L31V variant with leucine 31 changed to valine in the NS5A protein; test: microbe, parasite or virus in culture; conditions: genotype 1a L31V replicon; test compound titrated with compound N47 fixed at 200 nM versus singly
[2] = test system: HCV genotype 1a Y93H variant with tyrosine 93 changed to histidine in the NS5A protein; test: microbe, parasite or virus in culture; conditions: genotype 1a Y93H replicon; test compound titrated with compound N47 fixed at 200 nM versus singly
Procedure: Combinations can be examined for synergistic activity using a variety of putative NS5A-targeting compounds and a variety of test compounds. […] The test compound can be chosen from compounds exemplified below, which were prepared by methods known in the art, or from others disclosed in the literature.
Similarly, BMS-790052 can be tested singly and in combination with a fixed amount of compound N47 in the HCV replicon cell based assay consisting of the genotype 1a Y93H variant with tyrosine 93 changed to histidine in the NS5A protein.

[3] = test system: HCV genotype-1a variant with glutamine 30 changed to glutamate in the NS5A protein; conditions: test compound titrated with BMS-790052 fixed at 200 nM; genotype 1a Q30E replicon
Method in brief: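 Synergy was assessed by combining several fixed amounts of an NS5A-targeting compound with a titration of the second compound of interest.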

SMILES	Fold-Synergistic G-1a (L31V) [1] [fold]	Fold-Synergistic G-1a (Y93H) [2] [fold]	Fold-Synergistic 1a (Q30E) [3] [fold]
COC(=O)N[C@@H](C(=O)N1CCC[C@H]1c1nc(-c2ccc(Oc3cccc(-c4cnc([C@@H]5CCCN5C(=O)[C@H](NC(=O)OC)c5ccccc5)[nH]4)c3)cc2)c[nH]1)c1ccccc1	<10	<10	–
COC(=O)N[C@H](C(=O)N1[C@@H]2C[C@@H]2C[C@H]1c1nc2cc(-c3ccc(Oc4cccc5[nH]c([C@@H]6C[C@H]7C[C@H]7N6C(=O)[C@@H](NC(=O)OC)C(C)C)nc45)cc3)ccc2[nH]1)C(C)C	>10	>100	–
O=C1C(c2ccccc2)N(c2ccc(-c3cnc(-c4ccc(N5C(=O)C6CCCN6C(=O)C5c5ccccc5)cc4)o3)cc2)C(=O)C2CCCN12 (centres unmarked)	<10	<10	–
COC(=O)N[C@H](C(=O)N1[C@H](c2ncc(-c3ccc(-c4ccc(-c5cnc([C@@H]6C[C@@H](C)[C@H](C)N6C(=O)[C@@H](NC(=O)OC)C(C)C)[nH]5)cc4)cc3)[nH]2)C[C@@H](C)[C@@H]1C)C(C)C	>100	>100	–
COC(=O)N[C@@H](C(=O)N1CCC[C@H]1c1nc(-c2ccc(Oc3ccc(-c4c[nH]c([C@@H]5CCCN5C(=O)[C@H](NC(=O)OC)c5ccccc5)n4)cc3)cc2)c[nH]1)c1ccccc1	<10	<10	–
COC(=O)N[C@H](C(=O)N1[C@@H]2C[C@@H]2C[C@H]1c1nc(-c2cccc3c(-c4ccc(-c5cnc([C@@H]6C[C@H]7C[C@H]7N6C(=O)[C@@H](NC(=O)OC)C(C)C)[nH]5)cc4)cccc23)c[nH]1)C(C)C	>100	>100	–
COC(=O)N[C@@H](C(=O)N1CCC[C@H]1c1ncc(-c2ccc(-c3ncc(-c4cnc([C@@H]5CCCN5C(=O)[C@H](NC(=O)OC)c5ccccc5)[nH]4)cn3)cc2)[nH]1)c1ccccc1	<10	<10	–
COC(=O)N[C@@H](C(=O)N1CCC[C@H]1c1nc2ccc(C(=O)c3ccc4nc([C@@H]5CCCN5C(=O)[C@H](NC(=O)OC)c5ccccc5)[nH]c4c3)cc2[nH]1)c1ccccc1	<10	<10	–
COC(=O)N[C@H](C(=O)N1CCn2c(-c3ccc(-c4ccc(-c5cnc6n5CCN(C(=O)[C@@H](NC(=O)OC)C(C)C)C6)cc4)cc3)cnc2C1)C(C)C	<10	<10	–
COC(=O)N[C@H](C(=O)N1[C@@H]2C[C@@H]2C[C@H]1c1ncc(C#Cc2ccc3cc(-c4cnc([C@@H]5C[C@H]6C[C@H]6N5C(=O)[C@@H](NC(=O)OC)C(C)C)[nH]4)ccc3c2)[nH]1)C(C)C	>100	>100	–
COC(=O)N[C@@H](C(=O)N1CCC[C@H]1c1nc(-c2ccc(CCc3ccc(-c4c[nH]c([C@@H]5CCCN5C(=O)[C@H](NC(=O)OC)c5ccccc5)n4)cc3)cc2)c[nH]1)c1ccccc1	<10	<10	–
COC(=O)N[C@H](C(=O)N1CCC[C@H]1c1ncc(-c2ccc([C@H]3CC[C@@H](c4ccc(-c5cnc([C@@H]6CCCN6C(=O)[C@@H](NC(=O)OC)C(C)C)[nH]5)cc4)N3c3ccc(F)cc3)cc2)[nH]1)C(C)C	–	>10	–
COC(=O)N[C@H](C(=O)N1CCC[C@H]1c1ncc(-c2ccc([C@H]3CC[C@H](c4ccc(-c5cnc([C@@H]6CCCN6C(=O)[C@@H](NC(=O)OC)C(C)C)[nH]5)cc4)N3c3ccc(F)cc3)cc2)[nH]1)C(C)C	–	>10	–
CC(C)(C)[C@H](NC(=O)C1CCC(F)(F)CC1)c1nc2c([nH]1)-c1ccc(-c3ccc4c(c3)CCc3nc([C@@H](NC(=O)C5CCC(F)(F)CC5)C(C)(C)C)[nH]c3-4)cc1CC2 [Compound B23]	–	–	>100
COc1cccc(C(=O)C(=O)N[C@H](c2ncc(-c3ccc(-c4ccc(-c5cnc([C@@H](NC(=O)C(=O)c6cccc(OC)c6F)C(C)C)[nH]5)cc4)cc3)[nH]2)C(C)C)c1F [Compound P-119]	–	–	>100
CC(C)(C)[C@H](NC(=O)c1ccc(F)c(F)c1)c1nc(-c2ccc(-c3ccc(-c4c[nH]c([C@@H](NC(=O)c5ccc(F)c(F)c5)C(C)(C)C)n4)cc3)cc2)c[nH]1 [Compound N-51]	–	–	>100
CC1([C@H](NC(=O)C(O)(CF)CF)c2nc(-c3ccc(-c4ccc(-c5c[nH]c([C@@H](NC(=O)C(O)(CF)CF)C6(C)CC6)n5)cc4)cc3)c[nH]2)CC1 [Compound N-141]	–	–	>100
CC(C)[C@H](NC(=O)C1(C#N)CC1)c1ncc(-c2ccc(-c3ccc(-c4cnc([C@@H](NC(=O)C5(C#N)CC5)C(C)C)[nH]4)cc3)cc2)[nH]1 [Compound S-54]	–	–	>100

SMILES	Fold-Synergistic G-1a (L31V) [1] [fold]	Fold-Synergistic G-1a (Y93H) [2] [fold]	Fold-Synergistic 1a (Q30E) [3] [fold]
CC(C)[C@H](NC(=O)c1ccc2ccccc2c1)c1ncc(-c2ccc(-c3ccc(-c4cnc([C@@H](NC(=O)c5ccc6ccccc6c5)C(C)C)[nH]4)cc3)cc2)[nH]1 [Compound S-10]	–	–	>100
CC(C)(C)[C@H](NC(=O)C1CCCCO1)c1nc(-c2ccc(-c3ccc(-c4c[nH]c([C@@H](NC(=O)C5CCCCO5)C(C)(C)C)n4)cc3)cc2)c[nH]1 (some centres unmarked) [Compound Y-5]	–	–	>100
CC(C)(C)[C@H](NS(=O)(=O)N1CCOCC1)c1nc(-c2ccc(-c3ccc(-c4c[nH]c([C@@H](NS(=O)(=O)N5CCOCC5)C(C)(C)C)n4)cc3)cc2)c[nH]1 [Compound L-119]	–	–	>100
CC(C)[C@H](NC(=O)c1coc2ccccc12)c1ncc(-c2ccc(-c3ccc(-c4cnc([C@@H](NC(=O)c5coc6ccccc56)C(C)C)[nH]4)cc3)cc2)[nH]1 [Compound P-100]	–	–	>100
CC(C)[C@H](NC(=O)C(C)(C)OCC(F)F)c1nc(-c2ccc(-c3ccc(-c4c[nH]c([C@@H](NC(=O)C(C)(C)OCC(F)F)C(C)C)n4)c(F)c3)cc2)c[nH]1.O=C(O)C(F)(F)F [Compound N-91]	–	–	>100
CC(C)[C@H](NC(=O)Cc1noc2ccccc12)c1ncc(-c2ccc(-c3ccc(-c4cnc([C@@H](NC(=O)Cc5noc6ccccc56)C(C)C)[nH]4)cc3)cc2)[nH]1 [Compound P-77]	–	–	>100
CC(C)S(=O)(=O)CC(=O)N[C@H](c1nc(-c2ccc(-c3ccc(-c4cnc([C@@H](NC(=O)CS(=O)(=O)C(C)C)C(C)(C)C)[nH]4)cc3)cc2)c[nH]1)C(C)(C)C [Compound B-182]	–	–	>100
COc1ccccc1C1OC(=O)CC1C(=O)NC(c1nc(-c2ccc(-c3ccc(-c4c[nH]c(C(NC(=O)C5CC(=O)OC5c5ccccc5OC)C(C)(C)C)n4)cc3)cc2)c[nH]1)C(C)(C)C (mixture of isomers) [Compound S-263]	–	–	>10
CC(C)(C)[C@H](NC(=O)[C@@H]1C[C@@H]2[C@H](C1)C2(F)F)c1nc(-c2ccc(-c3ccc(-c4c[nH]c([C@@H](NC(=O)[C@@H]5C[C@@H]6[C@H](C5)C6(F)F)C(C)(C)C)n4)cc3)cc2)c[nH]1 [Compound Y-9]	–	–	>100
CC1(C)C[C@@H](C(=O)N[C@H](c2nc(-c3ccc(-c4ccc(-c5c[nH]c([C@@H](NC(=O)[C@@H]6CC(C)(C)CN6C(=O)OC(C)(C)C)C(C)(C)C)n5)cc4)cc3)c[nH]2)C(C)(C)C)N(C(=O)OC(C)(C)C)C1 [Compound W-93]	–	–	>100
CC(C)(C)C(NC(=O)C1CC(F)CN1C(=O)OC1CCCC1)c1nc(-c2ccc(-c3ccc(-c4c[nH]c(C(NC(=O)C5CC(F)CN5C(=O)OC5CCCC5)C(C)(C)C)n4)cc3)cc2)c[nH]1 (centres unmarked) [Compound W-111]	–	–	>100
CC1(C(NC(=O)C(C)(C)C(O)C2CC2)c2nc(-c3ccc(-c4ccc(-c5c[nH]c(C(NC(=O)C(C)(C)C(O)C6CC6)C6(C)CC6)n5)cc4)cc3)c[nH]2)CC1 (mixture of isomers) [Compound N-150]	–	–	>100
O=C(Oc1ccc2ccccc2c1)N1CCC[C@H]1c1ncc(-c2ccc(-c3ccc(-c4cnc([C@@H]5CCCN5C(=O)Oc5ccc6ccccc6c5)[nH]4)cc3)cc2)[nH]1 [Compound S-226]	–	–	>100
CC(C)CC(=O)NC1(c2ncc(-c3ccc(-c4ccc(-c5cnc(C6(NC(=O)CC(C)C)CCCCC6)[nH]5)cc4)cc3)[nH]2)CCCCC1.O=C(O)C(F)(F)F.O=C(O)C(F)(F)F [Compound N-24]	–	–	<10
CC(C)[C@H](NC(=O)[C@@H](C)c1ccccc1)c1ncc(-c2ccc(-c3ccc(-c4cnc([C@@H](NC(=O)[C@@H](C)c5ccccc5)C(C)C)[nH]4)cc3)cc2)[nH]1 [Compound P-62]	–	–	>100
CC1(C)CCN(C(=O)c2cccc3ccccc23)C1c1nc(-c2ccc(-c3ccc(-c4c[nH]c(C5N(C(=O)c6cccc7ccccc67)CCC5(C)C)n4)cc3)cc2)c[nH]1 (centres unmarked) [Compound W-225]	–	–	<10
CC1([C@H](NC(=O)C2CCC(F)(F)CC2)c2ncc(-c3ccc(-c4ccc(-c5cnc([C@@H](NC(=O)C6CCC(F)(F)CC6)C6(C)CC6)[nH]5)cc4)cc3)[nH]2)CC1 [Compound Y-34]	–	–	>100
CC(C)[C@H](NC(=O)c1cc(F)cc(F)c1)c1ncc(-c2ccc(-c3ccc(-c4cnc([C@@H](NC(=O)c5cc(F)cc(F)c5)C(C)C)[nH]4)cc3)cc2)[nH]1 [Compound Y-23]	–	–	>100
